Results from patent publication US20260098008A1, “COVALENT, CHEMOGENETIC ACTIVATORS FOR K2P POTASSIUM CHANNELS AND USES THEREOF” (THE REGENTS OF THE UNIVERSITY OF CALIFORNIA, priority 2022, published 2026).
Where a chain is given by its changes, count along the chain named.

What was measured:
[1] = biological target: T1, WT-CG* tandem K2P2.1 (TREK-1) (Mus musculus, UniProt P97438, S146C); test: TEVC in Xenopus oocytes, tandem channels; type: cell-based; details: 20 μM; for Fold-activation (I activator/I control): sequential application, Xenopus oocytes
T1 construct: expressed in transfected cells; host or cells: Xenopus laevis oocytes injected with mRNA
T1 sequence (P97438 1-411 isoform P97438-2): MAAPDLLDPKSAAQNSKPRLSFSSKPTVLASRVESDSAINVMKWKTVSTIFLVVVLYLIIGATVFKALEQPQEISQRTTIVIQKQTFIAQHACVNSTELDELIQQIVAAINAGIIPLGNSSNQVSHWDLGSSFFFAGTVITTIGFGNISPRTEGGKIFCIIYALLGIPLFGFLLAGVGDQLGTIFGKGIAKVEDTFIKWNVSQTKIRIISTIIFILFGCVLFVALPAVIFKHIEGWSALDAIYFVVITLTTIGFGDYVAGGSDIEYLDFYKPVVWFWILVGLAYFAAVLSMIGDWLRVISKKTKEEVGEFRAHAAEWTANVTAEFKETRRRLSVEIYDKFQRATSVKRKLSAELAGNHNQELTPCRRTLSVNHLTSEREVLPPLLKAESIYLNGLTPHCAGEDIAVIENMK
T1 sequence (P97438 1-411 isoform P97438-2 S131C): T1 sequence (P97438 1-411 isoform P97438-2) with S131C
Source text: (§1) Mouse K2P2.1 (TREK-1) (Genbank accession number: NP_034737.2), mouse K2P10.1 (TREK-2) (NM_001316665.1), mouse K2P4.1 (TRAAK) (NM_008431.3), human K2P4.1 (TRAAK) (NM_033310.2) and mouse K2P18.1(TRESK) (NM_207261.3) were used for this study. Point mutations were introduced by site-directed mutagenesis using custom primers and confirmed by sequencing before use. For studies using Xenopus oocytes, K2P channels were subcloned into a previously reported pGEMHE/pMO vector (46). For expression in HEK293 cells, mouse K2P2.1 (TREK-1) and mutants were expressed from a previously described pIRES2-EGFP vector in HEK293 cells (46,47). K2P2.1 (TREK-1) tandems were constructed by connecting the open reading frames for the individual subunits with a linker encoding the […] (SEQ ID NO: 19) sequence. Tandems used for HEK293 cells included an N-terminal HA tag ([…] (SEQ ID NO: 20)) on the first subunit.
Xenopus laevis oocytes were harvested according to UCSF IACUC Protocol AN129690 and digested using collagenase (Worthington Biochemical Corporation, #LS004183, 0.8-1.0 mg/mL) in Ca^21-free ND96 (96 mM NaCl, 2 mM KCl, 3.8 mM MgCl2, 5 mM HEPES pH 7.4) immediately post-harvest, as previously reported (31,33). Oocytes were maintained at 18° C. in ND96 (96 mM NaCl, 2 mM KCl, 1.8 mM CaCl2, 2 mM MgCl2, 5 mM HEPES pH 7.4) supplemented with antibiotics (100 units mL^−1 penicillin, 100 μg mL^−1 streptomycin, 50 μg mL^−1 gentimycin) and used for experiments within one week of harvest.
Defolliculated stage V-VI oocytes were microinjected with 0.5-36 ng mRNA and currents were recorded within 16-48 h hours of injection.
For recordings, oocytes were impaled with borosilicate recording microelectrodes (0.4-2.0 MΩ resistance) backfilled with 3 M KCl and were subjected to constant perfusion of ND96 at a rate of 3 ml min^−1. Recording solutions containing K2P activators were prepared immediately prior to use from DMSO stocks (20-100 mM), with final DMSO concentrations of 0.1%. Currents were evoked from a −80 mV holding potential followed by a 300 ms ramp from −150 mV to +50 mV. Data were recorded using a GeneClamp 500B amplifier (MDS Analytical Technologies) controlled by pCLAMP8 software (Molecular Devices), and digitized at 1 kHz using Digidata 1332 Å digitizer (MDS Analytical Technologies). For each recording, control solution (ND96) was perfused over a single oocyte until current was stable before switching to solutions containing the test compounds at various concentrations. Representative traces and dose response plots were generated in GraphPad Prism 9.

TREK-1^CG* = biological target: T2, TREK-1^CG* (Mus musculus, UniProt P97438, S146C); test: Whole-cell patch clamp in transfected HEK293 cells; type: cell-based; details: 20 μM; for Fold-activation (I activator/I control): whole-cell currents
T2 construct: expressed in transfected cells; host or cells: HEK293 (pIRES2-EGFP vector)
T2 sequence (P97438 1-411 isoform P97438-2 S131C): T1 sequence (P97438 1-411 isoform P97438-2) with S131C
Source text: as §1
50% confluent cells were co-transfected (in 35-mm diameter wells) with 10-100 ng of the K2P2.1 plasmid and 400 ng of an eGFP plasmid (for visualization) using LipofectAMINE 2000 (Invitrogen) for 24 h, after which the cells were either plated onto coverslips or the media exchanged with fresh media. Cells were plated onto Matrigel coated coverslips (BD Biosciences) 1-2 hours before experiments.
Whole-cell patch-clamp experiments with K2P2.1(TREK-1) and mutants were carried out 24-48 h after transfection. Acquisition and analysis for voltage-clamp experiments were performed using pCLAMP10 and an Axopatch 200B amplifier (Molecular Devices). Current-clamp experiments were acquired using an […] amplifier (Molecular Devices). Pipettes were pulled using a Flaming/Brown micropipette puller (P-97, Sutter Instruments) and flame-polished using a MF-830 microforge (Narishige). Electrode resistance after filling with pipette internal solution ranged from 2 to 5 MΩ. Currents were low-pass filtered at 2 kHz and sampled at 10 kHz. Pipette solution contained the following: 145 mM KCl, 3 mM MgCl2, 5 mM EGTA and 20 mM HEPES (pH 7.2 with KOH). Bath solution contained the following: 145 mM NaCl, 5 mM KCl, 1 mM CaCl2, 3 mM MgCl2 and 20 mM HEPES (pH 7.4 with NaOH). K2P2.1 currents were elicited by a 1 s ramp from −100 to +50 mV from a −80 mV holding potential. Current-clamp recordings were taken with no holding current (I=0). Only K2P2.1(TREK-1)^CG* whole-cell patches with basal currents between […] at 0 mV were used Criteria for A286F K2P2.1(TREK-1)^CG*. ML335 or CAT335 were applied at 20 μM in bath solution and were perfused at 3 ml min^−1 until potentiation stabilized (1-3 min). Data were analyzed using Clampfit 11 and GraphPad Prism 9.

Row | Fold-activation (I activator/I control) [1] [fold] | Fold-activation (I activator/I control) (TREK-1^CG*) [fold] | Fold-activation relative to activation of the CG*-CG* homodimer [1] | Reversibility of activation on washout (TREK-1^CG*) | Structure (SMILES)
1 | 5.6 ± 0.4 | 3.7 ± 0.4 |  |  | CS(=O)(=O)Nc1ccc(C(=O)NCc2ccc(Cl)cc2Cl)cc1 [ML335, reference compound]
2 | 11.5 ± 1.1 | 8.5 ± 1.5 | 60-80% | irreversible | O=C(NCc1ccc(Cl)cc1Cl)c1ccc(N2C(=O)C=CC2=O)cc1 [CAT335]
